Test results taken from patent publication US20250179066A1, “ZWITTERIONIC ANTIBACTERIAL COMPOUNDS” (Hoffmann-La Roche Inc., priority 2022, published 2025).

What follows are compounds tested on Acinetobacter baumannii ATCC17961 (assay: Antimicrobial susceptibility testing: 90% growth inhibitory concentration (IC90) determination). Settings: 90% growth inhibitory concentration against Acinetobacter baumannii ATCC17961, Iso-Sensitest broth, OD 600 nm over 16 h; read-out: ATCC 17961 IC90.
Assay type: cell-based
Description: The in vitro antimicrobial activity of the compounds was determined according to the following procedure: The assay used a 10-points Iso-Sensitest broth medium to measure quantitatively the in vitro activity of the compounds against Acinetobacter baumannii ATCC17961. Stock compounds in DMSO were serially twofold diluted (e.g. range from 10 to 0.0195 μM final concentration) in 384 wells microtiter plates and inoculated with 49 μL the bacterial suspension in Iso-Sensitest medium to have a final cell concentration of ˜5×10^(5) CFU/mL in a final volume/well of 50 μL/well. Microtiter plates were incubated at 35±2° C. Bacterial cell growth was determined with the measurement of optical density at λ=600 nm each min over a time course of 16 h. Growth inhibition was calculated during the logarithmic growth of the bacterial cells with determination of the concentration inhibiting 50% (IC50) and 90% (IC90) of the growth. Table 1 provides the 90% growth inhibitory concentrations (IC90) in micromoles per liter of the compounds of present invention obtained against the strain Acinetobacter baumannii ATCC17961.

| IC90 [nM] | Compound |
| --- | --- |
| 170 | Cn1c(-c2cn(-c3ccc(NCCN)cn3)nc2C(F)(F)F)cnc1C(=O)Nc1ccc(C(=O)N2CCN(C(=O)[C@H]3CC[N@+](CC(=O)O)(CC4CNC4)CC3)CC2)c(Cl)c1 [Example 10, cis-2-[4-[4-[4-[[5-[1-[5-(2-Aminoethylamino)-2-pyridyl]-3-(trifluoromethyl)pyrazol-4-yl]-1-methyl-imidazole-2-carbonyl]amino]-2-chloro-benzoyl]piperazine-1-carbonyl]-1-(azetidin-3-ylmethyl)piperidin-1-ium-1-yl]acetic Acid.1:1 2,2,2-trifluoroacetic Acid.1:1 2,2,2-trifluoroacetate] |

Same assay, conditions: Acinetobacter baumannii, ATCC17961, 16 h, 90% growth inhibitory concentration against Acinetobacter baumannii ATCC17961, Iso-Sensitest broth, OD 600 nm over 16 h; read-out: ATCC 17961 IC90

| Compound | IC90 [nM] |
| --- | --- |
| Cn1c(-c2cn(-c3ccc(CCN)cn3)nc2C(F)(F)F)cnc1C(=O)Nc1ccc(C(=O)N2CCN(C(=O)C3CC[N+](CC(=O)O)(CC4CNC4)CC3)CC2)c(Cl)c1 (stereo not drawn) [Example 1, 2-[4-[4-[4-[[5-[1-[5-(2-Aminoethyl)-2-pyridyl]-3-(trifluoromethyl)pyrazol-4-yl]-1-methyl-imidazole-2-carbonyl]amino]-2-chloro-benzoyl]piperazine-1-carbonyl]-1-(azetidin-3-ylmethyl)piperidin-1-ium-1-yl]acetic Acid.1:1 2,2,2-trifluoroacetic Acid.1:1 2,2,2-trifluoroacetate] | 330 |
| CNCCNc1ccc(-n2cc(-c3cnc(C(=O)Nc4ccc(C(=O)N5CCN(C(=O)C6CC[N+](CC(=O)O)(CC7CNC7)CC6)CC5)c(Cl)c4)n3C)c(C(F)(F)F)n2)nc1 (stereo not drawn) [Example 4, 2-[1-(azetidin-3-ylmethyl)-4-[4-[2-chloro-4-[[1-methyl-5-[1-[5-[2-(methylamino)ethylamino]-2-pyridyl]-3-(trifluoromethyl)pyrazol-4-yl]imidazole-2-carbonyl]amino]benzoyl]piperazine-1-carbonyl]piperidin-1-ium-1-yl]acetic acid. 1:1 2,2,2-trifluoroacetate] | 390 |
| Cn1c(-c2cn(-c3ccc(NCC4CCNCC4)cn3)nc2C(F)(F)F)cnc1C(=O)Nc1ccc(C(=O)N2CCN(C(=O)C3CC[N+](CC(=O)O)(CC4CNC4)CC3)CC2)c(Cl)c1 (stereo not drawn) [Example 5, 2-[1-(azetidin-3-ylmethyl)-4-[4-[2-chloro-4-[[1-methyl-5-[1-[5-(4-piperidylmethylamino)-2-pyridyl]-3-(trifluoromethyl)pyrazol-4-yl]imidazole-2-carbonyl]amino]benzoyl]piperazine-1-carbonyl]piperidin-1-ium-1-yl]acetic acid. 1:1 2,2,2-trifluoroacetate] | 590 |
| Cn1c(-c2cn(-c3ccc(NCCN)nc3)nc2C(F)(F)F)cnc1C(=O)Nc1ccc(C(=O)N2CCN(C(=O)C3CC[N+](CC(=O)O)(CC4CNC4)CC3)CC2)c(Cl)c1 (stereo not drawn) [Example 8, 2-[4-[4-[4-[[5-[1-[6-(2-aminoethylamino)-3-pyridyl]-3-(trifluoromethyl)pyrazol-4-yl]-1-methyl-imidazole-2-carbonyl]amino]-2-chloro-benzoyl]piperazine-1-carbonyl]-1-(azetidin-3-ylmethyl)piperidin-1-ium-1-yl]acetic acid. 1:1 2,2,2-trifluoroacetate] | 1550 |
| Cn1c(-c2cn(-c3ccc4[nH]ccc4n3)nc2C(F)(F)F)cnc1C(=O)Nc1ccc(C(=O)N2CCN(C(=O)CCC[N+](CCCCN)(CCCCN)CC(=O)O)CC2)c(Cl)c1 [Example 9, Bis(4-aminobutyl)-(carboxymethyl)-[4-[4-[2-chloro-4-[[1-methyl-5-[1-(1H-pyrrolo[3,2-b]pyridin-5-yl)-3-(trifluoromethyl)pyrazol-4-yl]imidazole-2-carbonyl]amino]benzoyl]piperazino]-4-keto-butyl]ammonium.1:1 2,2,2-trifluoroacetic Acid. 1:1 2,2,2-trifluoroacetate] | 100 |
| Cn1c(-c2cn(-c3cc4[nH]ccc4cn3)nc2C(F)(F)F)cnc1C(=O)Nc1ccc(C(=O)N2CCN(C(=O)[C@H]3CC[N@+](CC(=O)O)(CC4CNC4)CC3)CC2)c(Cl)c1 [Example 14, cis-2-[1-(azetidin-3-ylmethyl)-4-[4-[2-chloro-4-[[1-methyl-5-[1-(1H-pyrrolo[3,2-c]pyridin-6-yl)-3-(trifluoromethyl)pyrazol-4-yl]imidazole-2-carbonyl]amino]benzoyl]piperazine-1-carbonyl]piperidin-1-ium-1-yl]acetic acid. 1:1 2,2,2-trifluoroacetate] | 200 |

The next lines start with the values.

| IC90 [nM] | Compound |
| --- | --- |
| 720 | Cn1c(-c2cn(-c3ccc(N)cn3)nc2C(F)(F)F)cnc1C(=O)Nc1ccc(C(=O)N2CCN(C(=O)CCC[N+](C)(CCCN)CC(=O)O)CC2)c(Cl)c1 (racemic) [Example 65, rac-3-aminopropyl-[4-[4-[4-[[5-[1-(5-amino-2-pyridyl)-3-(trifluoromethyl)pyrazol-4-yl]-1-methyl-imidazole-2-carbonyl]amino]-2-chloro-benzoyl]piperazino]-4-keto-butyl]-(carboxymethyl)-methyl-ammonium. 1:1 2,2,2-trifluoroacetate] |
| 330 | Cn1c(-c2cn(-c3ccc(OCCN)cn3)nc2C(F)(F)F)cnc1C(=O)Nc1ccc(C(=O)N2CCN(C(=O)C3CC[N+](CC(=O)O)(CC4CNC4)CC3)CC2)c(Cl)c1 (stereo not drawn) [Example 2, 2-[4-[4-[4-[[5-[1-[5-(2-aminoethoxy)-2-pyridyl]-3-(trifluoromethyl)pyrazol-4-yl]-1-methyl-imidazole-2-carbonyl]amino]-2-chloro-benzoyl]piperazine-1-carbonyl]-1-(azetidin-3-ylmethyl)piperidin-1-ium-1-yl]acetic acid. 1:1 2,2,2-trifluoroacetic acid. 1:1 2,2,2-trifluoroacetate] |
| 390 | Cn1c(-c2cn(-c3ccc(N4CCNCC4)cn3)nc2C(F)(F)F)cnc1C(=O)Nc1ccc(C(=O)N2CCN(C(=O)C3CC[N+](CC(=O)O)(CC4CNC4)CC3)CC2)c(Cl)c1 (stereo not drawn) [Example 3, 2-[1-(azetidin-3-ylmethyl)-4-[4-[2-chloro-4-[[1-methyl-5-[1-(5-piperazino-2-pyridyl)-3-(trifluoromethyl)pyrazol-4-yl]imidazole-2-carbonyl]amino]benzoyl]piperazine-1-carbonyl]piperidin-1-ium-1-yl]acetic acid. 1:1 2,2,2-trifluoroacetic acid. 1:1 2,2,2-trifluoroacetate] |
| 690 | Cn1c(-c2cn(-c3ccc(NCC4CC4(F)F)cn3)nc2C(F)(F)F)cnc1C(=O)Nc1ccc(C(=O)N2CCN(C(=O)C3CC[N+](CC(=O)O)(CC4CNC4)CC3)CC2)c(Cl)c1 (stereo not drawn) [Example 6, 2-[1-(azetidin-3-ylmethyl)-4-[4-[2-chloro-4-[[5-[1-[5-[(2,2-difluorocyclopropyl)methylamino]-2-pyridyl]-3-(trifluoromethyl)pyrazol-4-yl]-1-methyl-imidazole-2-carbonyl]amino]benzoyl]piperazine-1-carbonyl]piperidin-1-ium-1-yl]acetic acid. 1:1 2,2,2-trifluoroacetate] |
| 1480 | Cn1c(-c2cn(-c3ccc(N)nc3)nc2C(F)(F)F)cnc1C(=O)Nc1ccc(C(=O)N2CCN(C(=O)C3CC[N+](CC(=O)O)(CC4CNC4)CC3)CC2)c(Cl)c1 (stereo not drawn) [Example 7, 2-[4-[4-[4-[[5-[1-(6-amino-3-pyridyl)-3-(trifluoromethyl)pyrazol-4-yl]-1-methyl-imidazole-2-carbonyl]amino]-2-chloro-benzoyl]piperazine-1-carbonyl]-1-(azetidin-3-ylmethyl)piperidin-1-ium-1-yl]acetic acid. 1:1 2,2,2-trifluoroacetate] |
| 170 | Cn1c(-c2cn(-c3ccc(N)cc3F)nc2C(F)(F)F)cnc1C(=O)Nc1ccc(C(=O)N2CCN(C(=O)CCC[N+](CCCCN)(CCCCN)CC(=O)O)CC2)c(Cl)c1 [Example 11, bis(4-aminobutyl)-[4-[4-[4-[[5-[1-(4-amino-2-fluoro-phenyl)-3-(trifluoromethyl)pyrazol-4-yl]-1-methyl-imidazole-2-carbonyl]amino]-2-chloro-benzoyl]piperazino]-4-keto-butyl]-(carboxymethyl)ammonium. 1:1 2,2,2-trifluoroacetic acid. 1:1 2,2,2-trifluoroacetate] |
| 180 | Cn1c(-c2cn(-c3ccc(NCCN)cn3)nc2C(F)(F)F)cnc1C(=O)Nc1ccc(C(=O)N2CCN(C(=O)C3CC[N+](CC(=O)O)(CC4CNC4)CC3)CC2)c(Cl)c1 (stereo not drawn) [Example 12, 2-[4-[4-[4-[[5-[1-[5-(2-aminoethylamino)-2-pyridyl]-3-(trifluoromethyl)pyrazol-4-yl]-1-methyl-imidazole-2-carbonyl]amino]-2-chloro-benzoyl]piperazine-1-carbonyl]-1-(azetidin-3-ylmethyl)piperidin-1-ium-1-yl]acetic acid. 1:1 2,2,2-trifluoroacetic acid. 1:1 2,2,2-trifluoroacetate] |
| 200 | Cn1c(-c2cn(-c3ccc4[nH]ccc4n3)nc2C(F)(F)F)cnc1C(=O)Nc1ccc(C(=O)N2CCN(C(=O)CCC[N+](CCCN)(CCCN)CC(=O)O)CC2)c(Cl)c1 [Example 13, bis(3-aminopropyl)-(carboxymethyl)-[4-[4-[2-chloro-4-[[1-methyl-5-[1-(1H-pyrrolo[3,2-b]pyridin-5-yl)-3-(trifluoromethyl)pyrazol-4-yl]imidazole-2-carbonyl]amino]benzoyl]piperazino]-4-keto-butyl]ammonium. 1:1 2,2,2-trifluoroacetic acid. 1:1 2,2,2-trifluoroacetate] |
